Reference: patent US12208076B2 (Southern Methodist University, priority 2020, dated 2025)

Experiment: Thermogravimetric analysis (TGA), thermal stability
Type: physicochemical
Conditions: 10° C./min, nitrogen
Method: TGA. […] Each sample was placed in an alumina crucible and heated from 25 to 1000° C. at a heating rate of 10° C./min under a constant flow of nitrogen. […] The different thermal decomposition pattern of a-CAA further supports the hypothesis that the milling product is a co-amorphous formulation and not a physical mixture of amorphous starting materials. […] The similarity between the IR spectra of both formulations points to similarities in their local structures and is indicative of a 1:1 stoichiometry. This stoichiometry was confirmed by thermal analyses. […] The similar TGA profiles of dried c-CAA and a-CAA, shown in FIGS. 3A and 3B, further confirm that the co-amorphous and the co-crystalline formulation have the same stoichiometry and similar local structures.

Compound | decomposition temperature (stable up to) [°C]
O=C(O)CC(O)(CC(=O)O)C(=O)O [citric acid anhydrate] | 164
CN(CC(=O)O)C(=N)N [creatine anhydrate] | 220
